According to PubChem BioAssay AID248 (DTP/NCI, 2004):
Values joined by “and” are separate entries in the source; they are usually repeats but may differ in a detail not shown here. Equal entries are not always repeated. Inconclusive results and toxic doses are left out.

Tested on: L1210 leukemia ip in BDF1 mice, survival T/C
Test: NCI In Vivo Anticancer Drug Screen. Data for tumor model L1210 Leukemia (intraperitoneal) in B6D2F1 (BDF1) mice
Details: endpoint: mean survival time, higher = longer survival
Summary of the method: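 Each compound was tested against a transplantable tumor grown in mice. The endpoint was survival, with treated animals benchmarked against vehicle controls as a simple ratio.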

[1] = dose: 50.0 mg/kg/injection, schedule: Q01DX009 (ip), vehicle: saline with Tween-80
[2] = dose: 100.0 mg/kg/injection, schedule: Q01DX009 (ip), vehicle: saline with Tween-80
[3] = dose: 100.0 mg/kg/injection, schedule: Q04DX003 (ip), vehicle: saline with Tween-80
[4] = dose: 200.0 mg/kg/injection, schedule: Q04DX003 (ip), vehicle: saline with Tween-80
[5] = dose: 100.0 mg/kg/injection, schedule: Q01DX001 (ip), vehicle: saline
[6] = dose: 100.0 mg/kg/injection, schedule: Q01DX009 (ip), vehicle: saline
[7] = dose: 200.0 mg/kg/injection, schedule: Q01DX001 (ip), vehicle: saline
[8] = dose: 400.0 mg/kg/injection, schedule: Q01DX001 (ip), vehicle: saline

CC([NH-])C[NH-].[Cl][Pt+2][Cl] (centres undefined)
T/C (dose: 0.31 mg/kg/injection, schedule: Q01DX009 (ip), vehicle: saline): 108 % of control | T/C (dose: 0.62 mg/kg/injection, schedule: Q01DX009 (ip), vehicle: saline): 116 % of control and 119 % of control | T/C (dose: 1.1 mg/kg/injection, schedule: Q01DX009 (ip), vehicle: saline): 111 % of control | T/C (dose: 1.25 mg/kg/injection, schedule: Q01DX009 (ip), vehicle: saline): 122 % of control | T/C (dose: 1.65 mg/kg/injection, schedule: Q01DX009 (ip), vehicle: saline): 116 % of control | T/C (dose: 3.75 mg/kg/injection, schedule: Q01DX009 (ip), vehicle: saline): 173 % of control | T/C (dose: 5.0 mg/kg/injection, schedule: Q01DX009 (ip), vehicle: saline): 93 % of control and 108 % of control | T/C (dose: 6.25 mg/kg/injection, schedule: Q04DX002 (ip), vehicle: Klucel (hydroxypropylcellulose) (HPC)): 112 % of control | T/C (dose: 12.5 mg/kg/injection, schedule: Q04DX002 (ip), vehicle: Klucel (hydroxypropylcellulose) (HPC)): 112 % of control | T/C (dose: 25.0 mg/kg/injection, schedule: Q04DX002 (ip), vehicle: Klucel (hydroxypropylcellulose) (HPC)): 104 % of control

COc1ccc(CNCC(=O)OCc2ccccc2)cc1
T/C [1]: 91 % of control | T/C [2]: 100 % of control | T/C [3]: 102 % of control | T/C [4]: 101 % of control

O=C1NC(c2ccccc2)(c2ccccc2)C(=O)N1CCO
T/C [5]: 100 % of control | T/C [6]: 96 % of control | T/C (dose: 100.0 mg/kg/injection, schedule: Q04DX003 (ip), vehicle: saline): 107 % of control | T/C [7]: 92 % of control | T/C (dose: 200.0 mg/kg/injection, schedule: Q01DX009 (ip), vehicle: saline): 96 % of control | T/C (dose: 200.0 mg/kg/injection, schedule: Q04DX003 (ip), vehicle: saline): 104 % of control | T/C [8]: 102 % of control | T/C (dose: 400.0 mg/kg/injection, schedule: Q01DX009 (ip), vehicle: saline): 90 % of control | T/C (dose: 400.0 mg/kg/injection, schedule: Q04DX003 (ip), vehicle: saline): 98 % of control

O=C(O)Cc1cc2c(cc1[N+](=O)[O-])OCO2
T/C (dose: 50.0 mg/kg/injection, schedule: Q01DX001 (ip), vehicle: saline): 103 % of control | T/C [5]: 97 % of control | T/C [7]: 97 % of control | T/C [8]: 103 % of control

O=C(Nc1ccc(Cl)c(Cl)c1)c1ccc2c(c1)C(=O)OC2=O
T/C [2]: 106 % of control | T/C (dose: 200.0 mg/kg/injection, schedule: Q01DX009 (ip), vehicle: saline with Tween-80): 106 % of control | T/C (dose: 400.0 mg/kg/injection, schedule: Q01DX009 (ip), vehicle: saline with Tween-80): 106 % of control

NC(CCl)=NCCN1CCNC1=O
T/C (dose: 100.0 mg/kg/injection, schedule: Q04DX002 (ip), vehicle: saline): 107 % of control | T/C (dose: 200.0 mg/kg/injection, schedule: Q04DX002 (ip), vehicle: saline): 104 % of control | T/C (dose: 400.0 mg/kg/injection, schedule: Q04DX002 (ip), vehicle: saline): 96 % of control

NC(=O)c1ccccc1NC(=O)Nc1cc(C(F)(F)F)ccc1Cl
T/C (dose: 100.0 mg/kg/injection, schedule: Q01DX009 (ip), vehicle: Klucel (hydroxypropylcellulose) (HPC)): 96 % of control | T/C (dose: 200.0 mg/kg/injection, schedule: Q01DX009 (ip), vehicle: Klucel (hydroxypropylcellulose) (HPC)): 86 % of control | T/C (dose: 400.0 mg/kg/injection, schedule: Q01DX009 (ip), vehicle: Klucel (hydroxypropylcellulose) (HPC)): 97 % of control

O=C1OCCS1
T/C (dose: 25.0 mg/kg/injection, schedule: Q01DX009 (ip), vehicle: saline): 107 % of control | T/C (dose: 50.0 mg/kg/injection, schedule: Q01DX009 (ip), vehicle: saline): 104 % of control | T/C [6]: 101 % of control and 105 % of control

CCOC(=O)c1c(NC(=O)C(F)(F)F)[nH]c(SSc2[nH]c(NC(=O)C(F)(F)F)c(C(=O)OCC)c2C(=O)OCC)c1C(=O)OCC
T/C (dose: 25.0 mg/kg/injection, schedule: Q01DX009 (ip), vehicle: saline with Tween-80): 97 % of control | T/C [1]: 102 % of control | T/C [2]: 97 % of control | T/C [3]: 105 % of control | T/C [4]: 86 % of control
